# Key:
# Homo sapiens = organism: Homo sapiens; test: Selectivity ratio of IC50 for human N-terminal His-tagged JAK2 catalytic domain (828 to 1132 residues) to IC50 for human N-terminal His-tagged JAK1 catalytic domain (837 to 1142 residues)
# [1] = target: Tyrosine-protein kinase JAK1 (Homo sapiens, UniProt P23458); test: Inhibition of human N-terminal His-tagged JAK1 catalytic domain (837 to 1142 residues) expressed in baculovirus infected insect cells assessed as decrease in phosphorylation of biotinylated peptide substrate after 1 hr in presence of 1 mM ATP by HTRF method
# Sequence of Tyrosine-protein kinase JAK1 (P23458 whole entry, the tested form may be a part): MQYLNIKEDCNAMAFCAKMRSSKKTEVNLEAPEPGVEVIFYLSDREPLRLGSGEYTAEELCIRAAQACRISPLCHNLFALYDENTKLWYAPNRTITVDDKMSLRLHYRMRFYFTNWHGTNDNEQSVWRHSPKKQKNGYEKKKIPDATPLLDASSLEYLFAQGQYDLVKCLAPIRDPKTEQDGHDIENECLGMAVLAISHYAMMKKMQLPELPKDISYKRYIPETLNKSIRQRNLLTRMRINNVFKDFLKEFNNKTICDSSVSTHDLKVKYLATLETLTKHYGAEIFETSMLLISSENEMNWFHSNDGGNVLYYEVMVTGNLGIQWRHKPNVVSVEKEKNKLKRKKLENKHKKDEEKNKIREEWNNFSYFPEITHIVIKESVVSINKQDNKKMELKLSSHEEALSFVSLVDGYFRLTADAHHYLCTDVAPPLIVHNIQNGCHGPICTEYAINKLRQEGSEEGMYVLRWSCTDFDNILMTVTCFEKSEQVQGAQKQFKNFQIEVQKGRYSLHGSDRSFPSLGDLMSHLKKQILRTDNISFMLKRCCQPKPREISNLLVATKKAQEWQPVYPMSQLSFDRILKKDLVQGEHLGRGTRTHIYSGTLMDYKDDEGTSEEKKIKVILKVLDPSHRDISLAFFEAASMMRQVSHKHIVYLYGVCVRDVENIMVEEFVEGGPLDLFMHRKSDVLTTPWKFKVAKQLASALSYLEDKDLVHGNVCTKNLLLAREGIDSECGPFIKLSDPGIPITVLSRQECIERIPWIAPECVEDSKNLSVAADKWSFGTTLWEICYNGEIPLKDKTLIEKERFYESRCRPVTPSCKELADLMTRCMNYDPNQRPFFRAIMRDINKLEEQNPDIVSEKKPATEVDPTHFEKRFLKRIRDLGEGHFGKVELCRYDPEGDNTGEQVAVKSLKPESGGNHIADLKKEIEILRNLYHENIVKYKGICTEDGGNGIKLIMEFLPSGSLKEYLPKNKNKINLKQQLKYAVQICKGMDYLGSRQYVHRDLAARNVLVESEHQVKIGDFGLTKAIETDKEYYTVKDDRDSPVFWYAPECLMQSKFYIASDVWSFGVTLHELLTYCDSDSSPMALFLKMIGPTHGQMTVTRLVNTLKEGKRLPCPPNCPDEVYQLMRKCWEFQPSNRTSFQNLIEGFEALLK
# [2] = target: Tyrosine-protein kinase JAK2 (Homo sapiens, UniProt O60674); test: Inhibition of human N-terminal His-tagged JAK2 catalytic domain (828 to 1132 residues) expressed in baculovirus infected insect cells assessed as decrease in phosphorylation of biotinylated peptide substrate after 1 hr in presence of 1 mM ATP by HTRF method
# Sequence of Tyrosine-protein kinase JAK2 (O60674 whole entry, the tested form may be a part): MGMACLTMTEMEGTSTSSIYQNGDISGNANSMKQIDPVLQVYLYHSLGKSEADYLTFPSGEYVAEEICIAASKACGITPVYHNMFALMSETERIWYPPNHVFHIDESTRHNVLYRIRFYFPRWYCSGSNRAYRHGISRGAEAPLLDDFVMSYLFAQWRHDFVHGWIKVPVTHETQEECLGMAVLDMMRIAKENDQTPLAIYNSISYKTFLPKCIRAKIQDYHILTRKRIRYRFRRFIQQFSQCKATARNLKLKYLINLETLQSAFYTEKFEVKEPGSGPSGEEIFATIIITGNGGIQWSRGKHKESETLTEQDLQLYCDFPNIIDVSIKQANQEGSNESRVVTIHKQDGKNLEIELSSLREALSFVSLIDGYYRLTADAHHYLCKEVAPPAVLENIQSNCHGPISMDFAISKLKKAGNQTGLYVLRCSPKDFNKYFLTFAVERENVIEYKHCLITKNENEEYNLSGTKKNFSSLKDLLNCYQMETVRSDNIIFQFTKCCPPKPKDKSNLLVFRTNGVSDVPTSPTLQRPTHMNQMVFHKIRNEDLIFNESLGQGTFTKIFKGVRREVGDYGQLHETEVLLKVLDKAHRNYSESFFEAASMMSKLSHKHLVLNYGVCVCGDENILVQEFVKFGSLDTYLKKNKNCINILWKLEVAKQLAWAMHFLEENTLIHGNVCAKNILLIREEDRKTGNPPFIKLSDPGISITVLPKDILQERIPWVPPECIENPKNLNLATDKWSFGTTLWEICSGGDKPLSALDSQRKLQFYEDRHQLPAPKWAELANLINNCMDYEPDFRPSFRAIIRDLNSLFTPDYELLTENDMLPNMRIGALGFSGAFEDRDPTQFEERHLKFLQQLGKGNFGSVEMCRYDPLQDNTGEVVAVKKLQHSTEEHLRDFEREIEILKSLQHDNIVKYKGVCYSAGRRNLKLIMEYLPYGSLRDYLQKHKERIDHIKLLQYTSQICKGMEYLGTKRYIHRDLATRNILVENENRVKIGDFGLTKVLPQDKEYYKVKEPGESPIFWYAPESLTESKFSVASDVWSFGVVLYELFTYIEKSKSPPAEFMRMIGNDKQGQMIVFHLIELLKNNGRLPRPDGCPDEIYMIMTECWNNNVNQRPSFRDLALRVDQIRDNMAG
SMILES,Ratio IC50 (Homo sapiens),IC50 [1],IC50 [2]
N#CCC1(n2cc(-c3ncnc4[nH]ccc34)cn2)CN(C2CCN(C(=O)Nc3cnccc3C(F)(F)F)CC2)C1,10.4 to 20.3,,
N#CCC1(n2cc(-c3ccnc4[nH]ccc34)cn2)CN(C2CCN(C(=O)c3ccnc(C(F)(F)F)c3F)CC2)C1,21.4,0.005 to 0.02 µM,> 0.1 µM
N#CCC1(n2cc(-c3ncnc4[nH]ccc34)cn2)CN(C2CCN(C(=O)OCc3cc(F)cc(F)c3)CC2)C1,7.1 to 24.4,,
CO[C@@H]1CN(C(=O)c2ccnc(C(F)(F)F)c2F)CC[C@@H]1N1CC(CC#N)(n2cc(-c3ncnc4[nH]ccc34)cn2)C1 (relative stereo),59.2,≤ 0.005 µM,> 0.1 µM
